Experimental data from US12282027B2, “High-throughput NMR approach for in-membrane protein ligand screening” (University of South Florida, priority 2021, dated 2025).

molecular target: T1, A1R receptor (Homo sapiens, UniProt P30542); assay: In-membrane WaterLOGSY NMR, 10× diluted A1R in yeast cell membrane (YCM); format: binding; conditions: 10× diluted A1R in YCM from Pichia pastoris; FIG. 5, FIG. 8
T1 construct: FLAG (N); His10 (C); TEV protease cleavage site (N); α-Factor peptide (secretion signal) (N); made in house; host or cells: Pichia pastoris
T1 sequence (P30542 1-326): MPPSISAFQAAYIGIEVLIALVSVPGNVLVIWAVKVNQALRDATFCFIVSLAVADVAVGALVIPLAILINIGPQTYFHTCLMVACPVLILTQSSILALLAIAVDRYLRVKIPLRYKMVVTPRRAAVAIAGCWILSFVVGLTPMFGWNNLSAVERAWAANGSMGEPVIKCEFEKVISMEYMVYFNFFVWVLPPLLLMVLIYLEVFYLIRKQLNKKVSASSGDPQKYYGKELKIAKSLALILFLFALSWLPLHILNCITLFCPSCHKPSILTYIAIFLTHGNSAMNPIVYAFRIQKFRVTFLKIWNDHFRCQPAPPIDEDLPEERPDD
Procedure: The human A1 receptor and A2A receptor were cloned into pPIC9K with an N-terminal Flag tag and a C-terminal His tag. […] The lysed cell pellets were centrifuged at 9,720×g for 30 min to remove all debris and keep the released membrane fraction parts.
At the end of fermentation, the cell pellets were collected after centrifugation at 4,000×g for 15 min at 4° C. and then washed once with 50 mM HEPES, pH 7.4, 100 mM NaCl buffer. The cell pellets were resuspended into Receptor Lysis Buffer (50 mM HEPES buffer, 10% glycerol, 100 mM NaCl, 2.5 mM EDTA) using the ratio of cell pellets to buffer equal to 1:4. […] The disrupted cell pellets were centrifuged at 9,720×g for 30 min at 4° C. to discard unbroken cells and cellular debris.
NMR samples for membranes typically consisted of 270-300 μL volumes of the cell membrane in 50 mM HEPES buffer, 10% glycerol, 100 mM NaCl, 2.5 mM EDTA, doped with 10% D2O and different concentration ligands prepared in DMSO as needed.
STD and WaterLOGSY experiments were conducted at a ^1H frequency of 600 MHz using Varian Inova spectrometer. 5 mm diameter NMR tubes with a sample volume of 270-300 μL were used in all experiments. Solutions were buffered using a HEPES buffer corrected to pH 7.4 and 10% glycerol. The sample preparation is exemplified as follows, the compound (solution in DMSO-d6), 30 μL D2O was added to 240 μL membrane in an Eppendorf tube. The resulting solution was spun to ensure full mixing and transferred to a 5 mm NMR tube before the run. Both STD and WaterLOGSY spectra were recorded for each sample. WaterLOGSY spectra in the absence of protein receptor were recorded.

Compound	WaterLOGSY NOE signal of the ligand (negative NOE = specific binding)
N[C@@H](Cc1ccc(O)c(F)c1)C(=O)O [3-fluorotyrosine]	absence of obvious NOE signals
N[C@@H](Cc1ccc(F)cc1)C(=O)O [4-Fluorophenylalanine]	positive NOEs
CTAP	absence of obvious NOE signals
